# Data reported in US7919101B2 (priority 2008, dated 2011).
# Read-outs that look alike come from different tables or passages of the source. Residues, ends and D or L forms follow the SMILES beside them.
# How the values were obtained:
# [1] = tested on: HIV-1 NL4-3(36G)V38A/N42D
# Experimental: (§1) 2. Inhibition of HIV infection as measured by luciferase assay. The inhibitory activity of fusion/entry inhibitors on HIV infection in TZM-bl cells was determined by using a luciferase assay (Wei X et al. Antimicrob. Agents Chemother. 46:1896-1905, 2002). Briefly, 50 μl of a compound at graded concentration in triplicate were incubated with an equal volume of an HIV-1 isolate at 0.01 multiplicity of infection (MOI) at 37° C. for 30 min, followed by addition of the mixture to 100 μl TZM-bl cells (1×10^5/ml) that were pre-cultured in a 96-well plate at 37° C. overnight. After further culture at 37° C. for 3 days, the cells were harvested and lyzed with 50 μl lysing reagent. The luciferase activity was analyzed using a luciferase kit (Promega Corp.) and a luminometer (Model: Ultra […], Tecan) according to the manufacture's instruction. The percent inhibition of cell fusion by a compound as well as EC50 and EC90 values were calculated using the software CalcuSyn.
# (§2) 3. Inhibition of HIV replication as measured by p24 antigen production. The inhibitory activity of fusion/entry inhibitors on HIV-1 infection as measured by p24 antigen production was determined as previously described (Zhao Q et al. AIDS Res Hum Retroviruses 18:989-997, 2002). In brief, 1×10^4 MT-2 cells were infected with an HIV-1 strain (100 TCID50) in 200 μl RPMI 1640 medium containing 10% FBS in the presence or absence of testing compounds at graded concentrations overnight. Then the culture supernatants were removed and fresh media containing no testing compounds were added. On the fourth day post-infection, 100 μl of culture supernatants were collected from each well, mixed with equal volumes of 5% Triton X-100 and assayed for p24 antigen, which was quantitated by ELISA. Briefly, wells of polystyrene plates were coated with HIV immunoglobulin (HIVIG, prepared from plasma of HIV-seropositive donors with high neutralizing titers against HIV-1IIIB), in 0.085 M carbonate-bicarbonate buffer (pH 9.6) at 4° C. overnight, followed by washes with washing buffer (0.01 M PBS containing 0.05% Tween-20) and blocking with PBS containing 1% dry fat-free milk. Virus lysates were added to the wells and incubated at 37° C. for 1 hr. […] Reactions were terminated by addition of 1N H2SO4. Absorbance at 450 nm was recorded in an ELISA reader (Ultra 384, TECAN). Recombinant protein p24, purchased from US Biological, was included for establishing standard dose response curves. Each sample was tested in triplicate. The percentage of inhibition of p24 production was calculated as previously described (Neurath A R et al. BMC Infect Dis 2:6, 2002).
# (§3) 4. Synergy analysis. […] In all analyses, HIV fusion/entry inhibitors were assumed to act noncompetitively, which led to a more conservative estimate of synergy. CI values<1 and >1 indicate synergy and antagonism, respectively. Dose reductions were calculated as the compound concentrations required for inhibition of HIV-1 replication when the compound was used alone and in combination. The statistic analysis was performed by the One-Way Analysis of Variance (One-Way ANOVA) method using Origin 6.1 software.
# [2] = tested on: HIV-1 NL4-3(36G)V38E/N42S
# Experimental: as §1, §2, §3
# [3] = tested on: HIV-1 IIIB (subtype B, X4)
# Experimental: as §1, §2, §3
# [4] = tested on: HIV-1 BaL (subtype B, R5)
# Experimental: as §1, §2, §3
# HIV-1 NL4-3(36G)V38A = tested on: HIV-1 NL4-3(36G)V38A
# Experimental: as §1, §2, §3
# HIV-1 NL4-3D36G = test: Inhibition of infection by T-20-sensitive strain NL4-3D36G; format: cell-based; conditions: for Dose reduction: NL4-3D36G
# Experimental: as §1, §2, §3
# [5] = tested on: HIV-1 93IN101 (subtype C, R5)
# Experimental: Inhibitory activity of fusion/entry inhibitors on infection by a primary HIV-1 isolate was determined as previously described (Jiang S et al. Antimicrob Agents Chemother 48:4349-4359, 2004). Peripheral blood mononuclear cells (PBMCs) were isolated from the blood of healthy donors by standard density gradient centrifugation using Histopaque-1077 (Sigma). The cells were plated in 75 cm^2 plastic flasks and incubated at 37° C. for 2 hrs. The nonadherent cells were collected and resuspended at 5×10^6 in 10 ml RPMI-1640 medium containing 10% FBS, 5 μg/ml PHA (phytohemagglutinin) and 100 U/ml IL-2 (Sigma), followed by incubation at 37° C. for 3 days. The PHA-stimulated cells were infected with a primary HIV-1 isolates at 0.01 MOI in the absence or presence of a compound at graded concentrations. Culture media were changed every 3 days. The supernatants were collected 7 days post-infection and tested for p24 antigen by ELISA as described above. The percent inhibition of p24 production and EC50 values were calculated as described above.
# as §3
# [6] = read-out: EC50 alone, peptide alone
# [7] = IIIB, T-20+T-1249+T-1144 16:4:1
# [8] = IIIB, T-20 combined with T-1144
# [9] = read-out: EC50 alone, IIIB (B, X4), peptide alone
# [10] = read-out: EC50 alone, Bal (B, R5), peptide alone
# [11] = 93IN101, T-20+T-1249+T-1144 4:1:1
# [12] = 93IN101, T-20 combined with T-1144
# [13] = read-out: EC50 alone, 93IN101 (C, R5) primary isolate, peptide alone
# [14] = read-out: EC50 in mixture, T-20+T-1249+T-1144 80:1:1
# [15] = read-out: EC50 in mixture, T-20 combined with T-1144, ratios 80:1:1
# [16] = read-out: EC50 in mixture, T-20 combined with T-1249, ratios 80:1:1
compound,measurement,setting,value
CC[C@H](C)[C@H](NC(=O)[C@H](C)NC(=O)[C@H](CCCNC(=N)N)NC(=O)[C@H](CC(=O)O)NC(=O)[C@H](Cc1c[nH]c2ccccc12)NC(=O)[C@H](C)NC(=O)[C@H](CCC(=O)O)NC(=O)[C@H](Cc1c[nH]c2ccccc12)NC(=O)[C@@H](NC(=O)[C@@H](NC(C)=O)[C@@H](C)O)[C@@H](C)O)C(=O)N[C@@H](C)C(=O)N[C@@H](CCC(=O)O)C(=O)N[C@@H](Cc1ccc(O)cc1)C(=O)N[C@@H](C)C(=O)N[C@@H](C)C(=O)N[C@@H](CCCNC(=N)N)C(=O)N[C@H](C(=O)N[C@@H](CCC(=O)O)C(=O)N[C@@H](C)C(=O)N[C@@H](CC(C)C)C(=O)N[C@@H](CC(C)C)C(=O)N[C@@H](CCCNC(=N)N)C(=O)N[C@@H](C)C(=O)N[C@@H](CC(C)C)C(=O)N[C@@H](CCC(N)=O)C(=O)N[C@@H](CCC(=O)O)C(=O)N[C@@H](CCC(N)=O)C(=O)N[C@@H](CCC(N)=O)C(=O)N[C@@H](CCC(=O)O)C(=O)N[C@@H](CCCCN)C(=O)N[C@@H](CC(N)=O)C(=O)N[C@@H](CCC(=O)O)C(=O)N[C@@H](C)C(=O)N[C@@H](C)C(=O)N[C@@H](CC(C)C)C(=O)N[C@@H](CCCNC(=N)N)C(=O)N[C@@H](CCC(=O)O)C(=O)N[C@@H](CC(C)C)C(N)=O)[C@@H](C)CC [T-1144] (Ac-TTWEAWDRAIAEYAARIEALLRALQEQQEKNEAALREL-NH2; N-terminus and C-terminus assumed),Dose reduction,[1]; T-20+T-1249+T-1144 80:1:1,9.33 fold
same,Dose reduction,[1]; T-20 combined with T-1144,1.82 fold
same,EC50,[1]; [6],4.57 nM
same,Dose reduction,[2]; T-20+T-1249+T-1144 3000:200:1,37.21 fold
same,Dose reduction,[2]; T-20 combined with T-1144,4.17 fold
same,EC50,[2]; [6],5.21 nM
same,Dose reduction,[3]; [7],99.00 fold
same,Dose reduction,[3]; [8],7.98 fold
same,EC50,[3]; [9],4.95 nM
same,Dose reduction,"[4]; Bal, T-20+T-1249+T-1144 2:1:1",209.00 fold
same,Dose reduction,"[4]; Bal, T-20 combined with T-1144",19.90 fold
same,EC50,[4]; [10],4.18 nM
same,Dose reduction,HIV-1 NL4-3(36G)V38A; T-20+T-1249+T-1144 80:1:1,37.60 fold
same,Dose reduction,HIV-1 NL4-3(36G)V38A; T-20 combined with T-1144,16.35 fold
same,EC50,HIV-1 NL4-3(36G)V38A; [6],3.76 nM
same,EC50,"HIV-1 NL4-3D36G; NL4-3D36G (T-20-sensitive), peptide alone",5.85 nM
same,Dose reduction,HIV-1 NL4-3D36G; T-20+T-1249+T-1144 7:5:1,15.81 fold
same,Dose reduction,HIV-1 NL4-3D36G; T-20 combined with T-1144,13.00 fold
same,Dose reduction,[5]; [11],24.17 fold
same,Dose reduction,[5]; [12],14.46 fold
same,EC50,[5]; [13],15.5 nM
enfuvirtide,Dose reduction,[1]; T-20+T-1249+T-1144 80:1:1,67.90 fold
same,Dose reduction,[1]; T-20 combined with T-1144,13.17 fold
same,Dose reduction,[1]; T-20 combined with T-1249,11.56 fold
same,EC50,[1]; [6],2650 nM
same,EC50,[1]; [14],39 nM
same,EC50,[1]; [15],201 nM
same,EC50,[1]; [16],229 nM
same,Dose reduction,[2]; T-20+T-1249+T-1144 3000:200:1,24.12 fold
same,Dose reduction,[2]; T-20 combined with T-1144,2.64 fold
same,Dose reduction,[2]; T-20 combined with T-1249,13.51 fold
same,EC50,[2]; [6],9890 nM
same,EC50,"[2]; read-out: EC50 in mixture, T-20+T-1249+T-1144 3000:200:1",410 nM
same,EC50,"[2]; read-out: EC50 in mixture, T-20 combined with T-1144, ratios 3000:200:1",3750 nM
same,EC50,"[2]; read-out: EC50 in mixture, T-20 combined with T-1249, ratios 3000:200:1",733 nM
same,Dose reduction,[3]; [7],71.04 fold
same,Dose reduction,[3]; [8],5.11 fold
same,Dose reduction,"[3]; IIIB, T-20 combined with T-1249",3.32 fold
same,EC50,[3]; [9],50.4 nM
same,EC50,"[3]; read-out: EC50 in mixture, IIIB, T-20+T-1249+T-1144 16:4:1",0.71 nM
same,EC50,"[3]; read-out: EC50 in mixture, IIIB, T-20 combined with T-1144, ratios 16:4:1",9.88 nM
same,EC50,"[3]; read-out: EC50 in mixture, IIIB, T-20 combined with T-1249, ratios 16:4:1",15.2 nM
same,Dose reduction,"[4]; Bal, T-20+T-1249+T-1144 2:1:1",280.67 fold
same,Dose reduction,"[4]; Bal, T-20 combined with T-1144",20.05 fold
same,Dose reduction,"[4]; Bal, T-20 combined with T-1249",11.53 fold
same,EC50,[4]; [10],8.42 nM
same,EC50,"[4]; read-out: EC50 in mixture, Bal, T-20+T-1249+T-1144 2:1:1",0.03 nM
same,EC50,"[4]; read-out: EC50 in mixture, Bal, T-20 combined with T-1144, ratios 2:1:1",0.42 nM
same,EC50,"[4]; read-out: EC50 in mixture, Bal, T-20 combined with T-1249, ratios 2:1:1",0.73 nM
same,Dose reduction,HIV-1 NL4-3(36G)V38A; T-20+T-1249+T-1144 80:1:1,37.76 fold
same,Dose reduction,HIV-1 NL4-3(36G)V38A; T-20 combined with T-1144,16.78 fold
same,Dose reduction,HIV-1 NL4-3(36G)V38A; T-20 combined with T-1249,23.03 fold
same,EC50,HIV-1 NL4-3(36G)V38A; [6],313 nM
same,EC50,HIV-1 NL4-3(36G)V38A; [14],8.29 nM
same,EC50,HIV-1 NL4-3(36G)V38A; [15],18.6 nM
same,EC50,HIV-1 NL4-3(36G)V38A; [16],13.6 nM
same,Dose reduction,HIV-1 NL4-3D36G; T-20+T-1249+T-1144 7:5:1,18.61 fold
same,Dose reduction,HIV-1 NL4-3D36G; T-20 combined with T-1144,15.53 fold
same,Dose reduction,HIV-1 NL4-3D36G; T-20 combined with T-1249,6.48 fold
same,Dose reduction,[5]; [11],15.70 fold
same,Dose reduction,[5]; [12],9.30 fold
same,Dose reduction,"[5]; 93IN101, T-20 combined with T-1249",10.90 fold
same,EC50,[5]; [13],39.9 nM
same,EC50,"[5]; read-out: EC50 in mixture, 93IN101, T-20+T-1249+T-1144 4:1:1",2.54 nM
same,EC50,"[5]; read-out: EC50 in mixture, 93IN101, T-20 combined with T-1144, ratios 4:1:1",4.29 nM
same,EC50,"[5]; read-out: EC50 in mixture, 93IN101, T-20 combined with T-1249, ratios 4:1:1",3.66 nM
